The values below come from US20180000085A1, “USE OF PICOLINAMIDE COMPOUNDS WITH FUNGICIDAL ACTIVITY” (DOW AGROSCIENCES LLC, priority 2014, published 2018).

The test system of one test is Puccinia triticina. The experiment in a line: Wheat brown rust (PUCCRT) disease control on wheat seedlings. The class given is in vivo. More on the design: key to PUCCRT 3DC, HV activity at 100 ppm (% control rating) / PUCCRT disease control, 3DC / PUCCRT 1DP disease control rating, HV activity / PUCCRT 3DC disease control rating, HV activity / PUCCRT 3DC, LV activity at 125.1 g/H (% Control rating) / PUCCRT 1DP, LV activity at 125.1 g/H (% Control rating) / PUCCRT 3DC disease control rating, LV activity at 125.1 g/H / PUCCRT 1DP disease control rating, LV activity at 125.1 g/H / PUCCRT 3DC disease control rating, HV activity at 100 ppm / PUCCRT 1DP disease control rating, HV activity at 100 ppm / HV activity at 100 ppm PUCCRT 3DC (disease control rating) / LV activity at 125.1 g/H PUCCRT 1DP (disease control rating) / LV activity at 125.1 g/H PUCCRT 3DC (disease control rating): A: > 80; B: ≤ 80; C: Not Tested; D: No Activity Observed in the Reported Assay. Particulars: for PUCCRT 1DP disease control rating, LV activity at 125.1 g/H / PUCCRT 3DC disease control rating, LV activity at 125.1 g/H / PUCCRT 1DP, LV activity at 125.1 g/H (% Control rating) / PUCCRT 3DC, LV activity at 125.1 g/H (% Control rating): low volume application; for PUCCRT 1DP disease control rating, LV activity at 125.1 g/H: 1 day protectant; for PUCCRT 3DC disease control rating, LV activity at 125.1 g/H: 3 day curative; for PUCCRT 1DP disease control rating, HV activity / PUCCRT 3DC disease control rating, HV activity: HV application at 100 ppm, wheat brown rust; for PUCCRT 1DP disease control rating, HV activity / PUCCRT 1DP, LV activity at 125.1 g/H (% Control rating): 1 Day Protectant; for PUCCRT 3DC disease control rating, HV activity / PUCCRT 3DC, LV activity at 125.1 g/H (% Control rating): 3 Day Curative.

In another test the test system is Zymoseptoria tritici. The experiment in a line: Leaf blotch of wheat (SEPTTR) disease control on wheat seedlings. The class given is in vivo. Also on record: key to SEPTTR 1DP, HV activity at 100 ppm (% control rating) / SEPTTR 3DC, HV activity at 100 ppm (% control rating) / SEPTTR disease control, 1DP / SEPTTR disease control, 3DC / SEPTTR 1DP disease control rating, HV activity / SEPTTR 3DC disease control rating, HV activity / SEPTTR 3DC, LV activity at 125.1 g/H (% Control rating) / SEPTTR 1DP, LV activity at 125.1 g/H (% Control rating) / SEPTTR 1DP disease control rating, LV activity at 125.1 g/H / SEPTTR 3DC disease control rating, LV activity at 125.1 g/H / SEPTTR 3DC disease control rating, HV activity at 100 ppm / SEPTTR 1DP disease control rating, HV activity at 100 ppm / HV activity at 100 ppm SEPTTR 3DC (disease control rating) / HV activity at 100 ppm SEPTTR 1DP (disease control rating) / LV activity at 125.1 g/H SEPTTR 1DP (disease control rating) / LV activity at 125.1 g/H SEPTTR 3DC (disease control rating): A: > 80; B: ≤ 80; C: Not Tested; D: No Activity Observed in the Reported Assay. Particulars: for SEPTTR 1DP disease control rating, LV activity at 125.1 g/H / SEPTTR 3DC disease control rating, LV activity at 125.1 g/H / SEPTTR 1DP, LV activity at 125.1 g/H (% Control rating) / SEPTTR 3DC, LV activity at 125.1 g/H (% Control rating): low volume application; for SEPTTR 1DP disease control rating, LV activity at 125.1 g/H: 1 day protectant; for SEPTTR 3DC disease control rating, LV activity at 125.1 g/H: 3 day curative; for SEPTTR 1DP disease control rating, HV activity / SEPTTR 3DC disease control rating, HV activity: HV application at 100 ppm, wheat leaf blotch; for SEPTTR 1DP disease control rating, HV activity / SEPTTR 1DP, LV activity at 125.1 g/H (% Control rating): 1 Day Protectant; for SEPTTR 3DC disease control rating, HV activity / SEPTTR 3DC, LV activity at 125.1 g/H (% Control rating): 3 Day Curative.

As for `CC(=O)Oc1cccnc1C(=O)NC(C)C(=O)OC(C)C(Oc1ccccc1)C(C)C` (stereo not shown) [Cmpd 678], in the test with Puccinia triticina, the “PUCCRT 1DP disease control rating, LV activity at 125.1 g/H” value is on record as “B (≤ 80)” and the “PUCCRT 3DC disease control rating, LV activity at 125.1 g/H” value was “D”. Also, in the test with Zymoseptoria tritici, the “SEPTTR 1DP disease control rating, LV activity at 125.1 g/H” value is “A (> 80)” and the “SEPTTR 3DC disease control rating, LV activity at 125.1 g/H” value is on record as “B (≤ 80)”.

With `COc1ccnc(C(=O)NC(C)C(=O)OC(C)C(OC(=O)c2ccccc2)C(C)C)c1O` (stereo not shown) [Cmpd 431], in the test on Puccinia triticina, the “PUCCRT 1DP disease control rating, HV activity” value is given as “A (> 80)” and the “PUCCRT 3DC disease control rating, HV activity” value is given as “D”. Moreover, in the test on Zymoseptoria tritici, the “SEPTTR 1DP disease control rating, HV activity” value is “D” and the “SEPTTR 3DC disease control rating, HV activity” value is on record as “D”.

Take `COc1ccnc(C(=O)NC(C)C(=O)OC(C)C(OCC2CC2)c2cccc(-c3ccccc3)c2)c1O` (stereo not shown) [Cmpd 442]: in the test with Puccinia triticina, the “PUCCRT 1DP disease control rating, HV activity” value is listed as “B (≤ 80)” and the “PUCCRT 3DC disease control rating, HV activity” value is reported as “B (≤ 80)”. In the test on Zymoseptoria tritici, the “SEPTTR 1DP disease control rating, HV activity” value was “D” and the “SEPTTR 3DC disease control rating, HV activity” value is reported as “B (≤ 80)”.

With `COc1ccnc(C(=O)N[C@@H](C)C(=O)O[C@@H](C)[C@@H](OC(=O)c2ccccc2)C(C)C)c1OCOC(C)=O` [Cmpd 851], in the test on Puccinia triticina, the “PUCCRT 1DP disease control rating, LV activity at 125.1 g/H” value is “B (≤ 80)” and the “PUCCRT 3DC disease control rating, LV activity at 125.1 g/H” value is “B (≤ 80)”. Further, in the test with Zymoseptoria tritici, the “SEPTTR 1DP disease control rating, LV activity at 125.1 g/H” value is on record as “D” and the “SEPTTR 3DC disease control rating, LV activity at 125.1 g/H” value was “D”.

For `CCC(CC)[C@@H](Oc1cccc(-c2ccccc2)c1)[C@H](C)OC(=O)[C@H](C)NC(=O)c1nccc(OC)c1OCOC(C)=O` [Cmpd 595], in the test with Puccinia triticina, the “PUCCRT 1DP, LV activity at 125.1 g/H (% Control rating)” value (“PUCCRT 1DP … (% Control rating)” for short) is listed as “A (> 80)” and the “PUCCRT 3DC, LV activity at 125.1 g/H (% Control rating)” value (“PUCCRT 3DC … (% Control rating)” below) is given as “B (≤ 80)”. In addition, in the test on Zymoseptoria tritici, the “SEPTTR 1DP, LV activity at 125.1 g/H (% Control rating)” value (shortened to “SEPTTR 1DP … (% Control rating)”) is listed as “A (> 80)” and the “SEPTTR 3DC, LV activity at 125.1 g/H (% Control rating)” value (“SEPTTR 3DC … (% Control rating)” for short) was “A (> 80)”.

As for `COc1ccnc(C(=O)N[C@@H](C)C(=O)O[C@@H](C)[C@H](Oc2ccc(-c3ccccc3)cc2)C(C)C)c1OCOC(C)=O` [Cmpd 612], in the test on Puccinia triticina, the “PUCCRT 1DP … (% Control rating)” value is reported as “A (> 80)” and the “PUCCRT 3DC … (% Control rating)” value is “B (≤ 80)”. For the same molecule, in the test on Zymoseptoria tritici, the “SEPTTR 1DP … (% Control rating)” value was “D” and the “SEPTTR 3DC … (% Control rating)” value was “B (≤ 80)”.

As to `COc1ccnc(C(=O)NC(C)C(=O)OC(C)C(Oc2cc(F)cc(Cl)c2)C(C)C)c1O` (stereo not shown) [Cmpd 393], in the test with Puccinia triticina, the “PUCCRT 1DP disease control rating, HV activity” value is “A (> 80)” and the “PUCCRT 3DC disease control rating, HV activity” value is “B (≤ 80)”. In the test on Zymoseptoria tritici, the “SEPTTR 1DP disease control rating, HV activity” value is “B (≤ 80)” and the “SEPTTR 3DC disease control rating, HV activity” value was “A (> 80)”.

With `COc1ccnc(C(=O)N[C@@H](C)C(=O)O[C@@H](C)[C@@H](OC)c2ccccc2)c1OC(C)=O` [Cmpd 885], in the test with Puccinia triticina, the “PUCCRT 1DP disease control rating, LV activity at 125.1 g/H” value is on record as “D” and the “PUCCRT 3DC disease control rating, LV activity at 125.1 g/H” value is given as “A (> 80)”. In the test on Zymoseptoria tritici, the “SEPTTR 1DP disease control rating, LV activity at 125.1 g/H” value was “D” and the “SEPTTR 3DC disease control rating, LV activity at 125.1 g/H” value is “B (≤ 80)”.

As for `CCC(CC)[C@@H](Oc1cc(F)cc(Cl)c1)[C@H](C)OC(=O)[C@H](C)NC(=O)c1nccc(OC)c1OC(C)=O` [Cmpd 603], in the test on Puccinia triticina, the “PUCCRT 1DP … (% Control rating)” value is on record as “A (> 80)” and the “PUCCRT 3DC … (% Control rating)” value is given as “A (> 80)”. Further, in the test on Zymoseptoria tritici, the “SEPTTR 1DP … (% Control rating)” value is reported as “A (> 80)” and the “SEPTTR 3DC … (% Control rating)” value is reported as “A (> 80)”.

Take `COc1ccnc(C(=O)N[C@@H](C)C(=O)O[C@@H](C)[C@H](Oc2ccc(Cl)cc2)C2CCCC2)c1OC(C)=O` [Cmpd 921]: in the test with Puccinia triticina, the “PUCCRT 1DP disease control rating, LV activity at 125.1 g/H” value is “A (> 80)” and the “PUCCRT 3DC disease control rating, LV activity at 125.1 g/H” value was “A (> 80)”. In the test with Zymoseptoria tritici, the “SEPTTR 1DP disease control rating, LV activity at 125.1 g/H” value was “A (> 80)” and the “SEPTTR 3DC disease control rating, LV activity at 125.1 g/H” value is “B (≤ 80)”.
